The source of these data is patent publication US12528814B2, “Bifunctional degraders of interleukin-1 receptor-associated kinases and therapeutic use thereof” (NURIX THERAPEUTICS, INC., priority 2020, dated 2026).

Experiment [1] concerns the target T1, IRAK4 (Homo sapiens (Human), UniProt Q9NWZ3). As to the kind of experiment: IRAK4 Degradation HiBiT Assay. The settings on record: multiple runs, HiBiT-tagged Jurkat cells, 4 hrs; for Dmax: Jurkat, read-out: Cellular IRAK4 HiBiT: Dmax, Table 5; for DC50: read-out: Cellular IRAK4 HiBiT: DC50, Table 5.
Target sequence in this assay (Q9NWZ3 whole entry): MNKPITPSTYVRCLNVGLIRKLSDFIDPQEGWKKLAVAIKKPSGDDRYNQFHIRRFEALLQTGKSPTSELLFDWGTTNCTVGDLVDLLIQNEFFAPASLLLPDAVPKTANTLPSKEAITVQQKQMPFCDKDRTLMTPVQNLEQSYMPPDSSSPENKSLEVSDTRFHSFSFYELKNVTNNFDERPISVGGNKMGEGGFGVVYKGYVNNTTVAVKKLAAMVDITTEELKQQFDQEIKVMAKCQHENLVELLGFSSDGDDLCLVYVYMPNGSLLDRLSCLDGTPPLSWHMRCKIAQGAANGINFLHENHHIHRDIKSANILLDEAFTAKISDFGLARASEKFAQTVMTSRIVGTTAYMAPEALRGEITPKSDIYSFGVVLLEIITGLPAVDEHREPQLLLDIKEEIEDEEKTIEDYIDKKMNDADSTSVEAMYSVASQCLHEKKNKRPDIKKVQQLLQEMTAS
The target of experiment [2] is T1, IRAK4. Briefly: IRAK4 Biochemical HTRF Kinase Assay. The settings on record: Table 5; multiple runs; read-out: IRAK4 HTRF biochemical: IC50. In a few lines:
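HTRF KinEASE STK S1 format measuring IRAK4 phosphorylation of biotinylated peptide; reaction solution of 5 μM STK-S1, 10 mM ATP, 10 mM MgCl2 added (stock, to 10 μl final), 90 min at ambient temperature, detection 60 min. IC50 from sixteen-point duplicate curves by non-linear regression.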
Target sequence in this assay (Q9NWZ3 whole entry, species assumed): as the sequence (Q9NWZ3 whole entry) above
(Time-resolved FRET reads energy transfer from a long-lived donor to a nearby acceptor.)

In the case of `CNc1cc(-c2ccc3cc(C#N)cnn23)ncc1-c1nnc(N2CCC(NC(=O)CN3CCN(c4ccc5c(c4)C(=O)N(C4CCC(=O)NC4=O)C5=O)CC3)CC2)s1` (stereo not drawn) [Example 95, N-(1-(5-(6-(3-cyanopyrrolo[1,2-b]pyridazin-7-yl)-4-(methylamino)pyridin-3-yl)-1,3,4-thiadiazol-2-yl)piperidin-4-yl)-2-(4-(2-(2,6-dioxopiperidin-3-yl)-1,3-dioxoisoindolin-5-yl)piperazin-1-yl)acetamide], on IRAK4 [1], the Dmax was 108% and the DC50 was found to be 9.74 nM. For the same compound, the 50% inhibitory concentration (IC50) at IRAK4 [2] came out at 0.8 nM.

Regarding `CNc1cc(-c2ccc3cc(C#N)cnn23)ncc1-c1nnc(N2CCN(C(=O)COc3cc(-c4scnc4C)ccc3CNC(=O)[C@@H]3C[C@@H](O)CN3C(=O)[C@@H](NC(=O)C3(F)CC3)C(C)(C)C)CC2)s1` [Example 96, (2S,4R)—N-(2-(2-(4-(5-(6-(3-cyanopyrrolo[1,2-b]pyridazin-7-yl)-4-(methylamino)pyridin-3-yl)-1,3,4-thiadiazol-2-yl)piperazin-1-yl)-2-oxoethoxy)-4-(4-methylthiazol-5-yl)benzyl)-1-((S)-2-(1-fluorocyclopropane-1-carboxamido)-3,3-dimethylbutanoyl)-4-hydroxypyrrolidine-2-carboxamide], at IRAK4 [1], the Dmax was determined as 90% and the DC50 is 905 nM. Also, the IC50 at IRAK4 [2] was determined as 1.3 nM.

Turning to `CNc1cc(-c2ccc3cc(C#N)cnn23)ncc1-c1nnc(N2CCC(NC(=O)COc3cc(-c4scnc4C)ccc3CNC(=O)[C@@H]3C[C@@H](O)CN3C(=O)[C@@H](NC(=O)C3(F)CC3)C(C)(C)C)CC2)s1` [Example 97, (2S,4R)—N-(2-(2-((1-(5-(6-(3-cyanopyrrolo[1,2-b]pyridazin-7-yl)-4-(methylamino)pyridin-3-yl)-1,3,4-thiadiazol-2-yl)piperidin-4-yl)amino)-2-oxoethoxy)-4-(4-methylthiazol-5-yl)benzyl)-1-((S)-2-(1-fluorocyclopropane-1-carboxamido)-3,3-dimethylbutanoyl)-4-hydroxypyrrolidine-2-carboxamide], on IRAK4 [1], the Dmax came out at 59% and the DC50 is 265 nM. The IC50 on IRAK4 [2] stood at 4.8 nM.

Turning to `CNc1cc(-c2ccc3cc(C#N)cnn23)ncc1-c1nnc(N2CCN(C3CCN(C(=O)c4ccc5c(c4)C(=O)N(C4CCC(=O)NC4=O)C5=O)CC3)CC2)s1` (stereo not drawn) [Example 98, 7-(5-(5-(4-(1-(2-(2,6-dioxopiperidin-3-yl)-1,3-dioxoisoindoline-5-carbonyl)piperidin-4-yl)piperazin-1-yl)-1,3,4-thiadiazol-2-yl)-4-(methylamino)pyridin-2-yl)pyrrolo[1,2-b]pyridazine-3-carbonitrile], on IRAK4 [1], the Dmax came to 109% and the DC50 came out at 6.58 nM. On IRAK4 [2], the IC50 is 0.3 nM.

Consider `CNc1cc(-c2ccc3cc(C#N)cnn23)ncc1-c1nnc(N2CCN(C3CCN(C(=O)c4ccc5c(c4)C(=O)N(C4CCC(=O)NC4=O)C5)CC3)CC2)s1` (stereo not drawn) [Example 99, 7-(5-(5-(4-(1-(2-(2,6-dioxopiperidin-3-yl)-3-oxoisoindoline-5-carbonyl)piperidin-4-yl)piperazin-1-yl)-1,3,4-thiadiazol-2-yl)-4-(methylamino)pyridin-2-yl)pyrrolo[1,2-b]pyridazine-3-carbonitrile], for which, at IRAK4 [1], the Dmax turned out to be 116% and the DC50 was found to be 3.59 nM. At IRAK4 [2], the IC50 was found to be 0.3 nM.

With `CNc1cc(-c2ccc3cc(C#N)cnn23)ncc1-c1nnc(N2CCN(C3CCN(C(=O)Cc4ccc5c(c4)CN(C4CCC(=O)NC4=O)C5=O)CC3)CC2)s1` (stereo not drawn) [Example 100, 7-(5-(5-(4-(1-(2-(2-(2,6-dioxopiperidin-3-yl)-1-oxoisoindolin-5-yl)acetyl)piperidin-4-yl)piperazin-1-yl)-1,3,4-thiadiazol-2-yl)-4-(methylamino)pyridin-2-yl)pyrrolo[1,2-b]pyridazine-3-carbonitrile], on IRAK4 [1], the Dmax stood at 111% and the DC50 came to 4.41 nM. For the same compound, the IC50 on IRAK4 [2] turned out to be 0.4 nM.

Take `CNc1cc(-c2ccc3cc(C#N)cnn23)ncc1-c1nnc([C@H]2CC[C@H](NC(=O)C34CC(C(=O)N[C@H](C(=O)N5C[C@H](O)C[C@H]5C(=O)N[C@@H](C)c5ccc(-c6scnc6C)cc5)C(C)(C)C)(C3)C4)CC2)s1` [Example 101, N1-((1r,4S)-4-(5-(6-(3-cyanopyrrolo[1,2-b]pyridazin-7-yl)-4-(methylamino)pyridin-3-yl)-1,3,4-thiadiazol-2-yl)cyclohexyl)-N3-((S)-1-((2S,4R)-4-hydroxy-2-(((S)-1-(4-(4-methylthiazol-5-yl)phenyl)ethyl)carbamoyl)pyrrolidin-1-yl)-3,3-dimethyl-1-oxobutan-2-yl)bicyclo[1.1.1]pentane-1,3-dicarboxamide]: at IRAK4 [1], the Dmax was 117% and the DC50 was 42.2 nM. Besides, the half-inhibitory concentration (IC50) on IRAK4 [2] stood at 2.4 nM.

Take `CNc1cc(-c2ccc3cc(C#N)cnn23)ncc1-c1nnc(C23CCC(NC(=O)CCOCCNc4ccc5c(c4)C(=O)N(C4CCC(=O)NC4=O)C5=O)(CC2)CC3)s1` (stereo not drawn) [Example 102, N-(4-(5-(6-(3-cyanopyrrolo[1,2-b]pyridazin-7-yl)-4-(methylamino)pyridin-3-yl)-1,3,4-thiadiazol-2-yl)bicyclo[2.2.2]octan-1-yl)-3-(2-((2-(2,6-dioxopiperidin-3-yl)-1,3-dioxoisoindolin-5-yl)amino)ethoxy)propanamide]: at IRAK4 [1], the Dmax stood at 91% and the DC50 worked out at 25.3 nM. Besides, the IC50 at IRAK4 [2] worked out at 0.8 nM.

With `CNc1cc(-c2ccc3cc(C#N)cnn23)ncc1-c1nnc(C23CCC(NC(=O)C4CN(C5CCN(c6ccc7c(c6)C(=O)N(C6CCC(=O)NC6=O)C7=O)CC5)C4)(CC2)CC3)s1` (stereo not drawn) [Example 103, N-(4-(5-(6-(3-cyanopyrrolo[1,2-b]pyridazin-7-yl)-4-(methylamino)pyridin-3-yl)-1,3,4-thiadiazol-2-yl)bicyclo[2.2.2]octan-1-yl)-1-(1-(2-(2,6-dioxopiperidin-3-yl)-1,3-dioxoisoindolin-5-yl)piperidin-4-yl)azetidine-3-carboxamide], on IRAK4 [1], the Dmax worked out at 99% and the 50% degradation concentration (DC50) was found to be 73.3 nM. The IC50 at IRAK4 [2] turned out to be 1 nM.

With `CNc1cc(-c2ccc3cc(C#N)cnn23)ncc1-c1nnc(C23CCC(NC(=O)CN4CCC5(CC4)CN(c4ccc6c(c4)C(=O)N(C4CCC(=O)NC4=O)C6=O)C5)(CC2)CC3)s1` (stereo not drawn) [Example 104, N-(4-(5-(6-(3-cyanopyrrolo[1,2-b]pyridazin-7-yl)-4-(methylamino)pyridin-3-yl)-1,3,4-thiadiazol-2-yl)bicyclo[2.2.2]octan-1-yl)-2-(2-(2-(2,6-dioxopiperidin-3-yl)-1,3-dioxoisoindolin-5-yl)-2,7-diazaspiro[3.5]nonan-7-yl)acetamide], on IRAK4 [1], the Dmax amounted to 77% and the DC50 turned out to be 49.9 nM. On IRAK4 [2], the IC50 came to 1.5 nM.

For the compound `CNc1cc(-c2ccc3cc(C#N)cnn23)ncc1-c1nnc(C23CCC(NC(=O)CN4CCN(c5ccc6c(c5)C(=O)N(C5CCC(=O)NC5=O)C6=O)CC4)(CC2)CC3)s1` (stereo not drawn) [Example 105, N-(4-(5-(6-(3-cyanopyrrolo[1,2-b]pyridazin-7-yl)-4-(methylamino)pyridin-3-yl)-1,3,4-thiadiazol-2-yl)bicyclo[2.2.2]octan-1-yl)-2-(4-(2-(2,6-dioxopiperidin-3-yl)-1,3-dioxoisoindolin-5-yl)piperazin-1-yl)acetamide], on IRAK4 [1], the Dmax came out at 106% and the DC50 worked out at 39.8 nM. Besides, the IC50 on IRAK4 [2] stood at 1.2 nM.

On to `CNc1cc(-c2ccc3cc(C#N)cnn23)ncc1-c1nnc(C23CCC(NC(=O)CCCCCNc4cccc5c4C(=O)N(C4CCC(=O)NC4=O)C5=O)(CC2)CC3)s1` (stereo not drawn) [Example 106, N-(4-(5-(6-(3-cyanopyrrolo[1,2-b]pyridazin-7-yl)-4-(methylamino)pyridin-3-yl)-1,3,4-thiadiazol-2-yl)bicyclo[2.2.2]octan-1-yl)-6-((2-(2,6-dioxopiperidin-3-yl)-1,3-dioxoisoindolin-4-yl)amino)hexanamide], for which, on IRAK4 [1], the Dmax worked out at 45% and the DC50 was found to be 43.8 nM. In addition, the IC50 at IRAK4 [2] was 2 nM.

In the case of `CNc1cc(-c2ccc3cc(C#N)cnn23)ncc1-c1nnc(C23CCC(NC(=O)CCCCCCCNc4ccc5c(c4)C(=O)N(C4CCC(=O)NC4=O)C5=O)(CC2)CC3)s1` (stereo not drawn) [Example 107, N-(4-(5-(6-(3-cyanopyrrolo[1,2-b]pyridazin-7-yl)-4-(methylamino)pyridin-3-yl)-1,3,4-thiadiazol-2-yl)bicyclo[2.2.2]octan-1-yl)-8-((2-(2,6-dioxopiperidin-3-yl)-1,3-dioxoisoindolin-5-yl)amino)octanamide], on IRAK4 [1], the Dmax was 44% and the DC50 was 99.7 nM. Also, at IRAK4 [2], the half-maximal inhibitory concentration (IC50) was 2.6 nM.

For the compound `CNc1cc(-c2ccc3cc(C#N)cnn23)ncc1-c1nnc(C23CCC(NC(=O)CCCCCNc4ccc5c(c4)C(=O)N(C4CCC(=O)NC4=O)C5=O)(CC2)CC3)s1` (stereo not drawn) [Example 108, N-(4-(5-(6-(3-cyanopyrrolo[1,2-b]pyridazin-7-yl)-4-(methylamino)pyridin-3-yl)-1,3,4-thiadiazol-2-yl)bicyclo[2.2.2]octan-1-yl)-6-((2-(2,6-dioxopiperidin-3-yl)-1,3-dioxoisoindolin-5-yl)amino)hexanamide], on IRAK4 [1], the Dmax was found to be 70% and the DC50 is 45.7 nM. Moreover, on IRAK4 [2], the IC50 worked out at 1.4 nM.

Regarding `CNc1cc(-c2ccc3cc(C#N)cnn23)ncc1-c1nnc(C23CCC(NC(=O)[C@H]4C[C@@H](OCCNc5cccc6c5C(=O)N(C5CCC(=O)NC5=O)C6=O)C4)(CC2)CC3)s1` (stereo partly drawn) [Example 109, (1s,3s)-N-(4-(5-(6-(3-cyanopyrrolo[1,2-b]pyridazin-7-yl)-4-(methylamino)pyridin-3-yl)-1,3,4-thiadiazol-2-yl)bicyclo[2.2.2]octan-1-yl)-3-(2-((2-(2,6-dioxopiperidin-3-yl)-1,3-dioxoisoindolin-4-yl)amino)ethoxy)cyclobutane-1-carboxamide], on IRAK4 [1], the Dmax stood at 64% and the DC50 came to 21.6 nM. Besides, on IRAK4 [2], the IC50 turned out to be 1.4 nM.

The term Dmax denotes the greatest extent of degradation seen. By DC50 is commonly meant the concentration at which degradation of the target reaches its halfway point. One may read the IC50 as the point on the concentration scale where inhibition reaches its midpoint.
